Results as given in US9458123B2, “Methods, pharmaceutical compositions, therapeutic systems, and compounds for treating B cell malignancies” (University of Rochester, priority 2012, dated 2016).

Legend:
OCI-Ly10 cells = test: Apoptosis of OCI-Ly10 cells (western blot, 7AAD/annexin V flow cytometry); type: cell-based
Procedure: The indicated ABC DLBCL cells were seeded at 3×10^5 cells/ml in 6-well plates and cultured in the presence of DMSO (0.2%, control) or various concentrations of NSC697923 for 24 hours. The live and dead cells were counted using the trypan blue exclusion assay. Shown are the means from three separate experiments. The average number of live cells in the control was set at 100. […] The levels of the indicated proteins were analyzed by western blotting. For caspase 3 detection, a mixture of an antibody for the uncleaved form and an antibody specific for the cleaved form was used. In FIG. 7C, OCI-Ly10 cells were treated as in FIG. 7A. The apoptotic cells (Annexin V positive cells) were measured by flow cytometry as described in Example 1 infra. A representative result from three independent experiments is depicted. […] BrdU was then added into the culture medium for 30 minutes before the cell-cycle distribution of the treated cells was analyzed as described in Example 1 infra. Shown are the averages from two independent experiments. […] BrdU was then added into the culture medium for 30 minutes before the cell-cycle distribution of the treated cells was analyzed as described in Example 1 infra. Shown are the averages from two independent experiments.
(§1) Apoptosis was assayed using the 7AAD/annexin V apoptosis kit (BD Bioscience) as previously described (Kim et al., “Protein Kinase C-Associated Kinase is Required for NF-kappaB Signaling and Survival in Diffuse Large B-Cell Lymphoma Cells,” Blood 111:1644-1653 (2008), which is hereby incorporated by reference in its entirety). Analysis of the cell cycle distribution of the treated cells was carried out with propidium iodide (PI) and BrdU double staining as previously described (DeRan et al., “Assessing G1-to-S-Phase Progression after Genotoxic Stress,” Methods Mol. Biol. 782:221-230 (2011) and Su et al., “DNA Damage Induces Downregulation of Histone Gene Expression Through the G1 Checkpoint Pathway,” EMBO. J. 23:1133-1143 (2004), each of which is hereby incorporated by reference in its entirety).

osteosarcoma U2OS cells = test: Cell viability, trypan blue exclusion assay; type: cell-based; conditions: 24 hours
Procedure: (§2) 1×10^6 cells were plated in 10 cm plates and cultured overnight. The indicated concentrations of NSC697923 were then added into culture medium for 24 hours before the cell viability was analyzed by trypan blue exclusion assay. Shown are the averages from three independent experiments.
as §1

[1] = system: breast cancer MDA-MB231 cells; test: Cell viability, trypan blue exclusion assay; type: cell-based; conditions: 24 hours
Procedure: as §2, §1

UbcH5c = target: T1, UbcH5c (Homo sapiens, UniProt P61077); test: In vitro UbcH5c~Ub thioester conjugate formation; type: biochemical
T1 construct: purchased Boston Biochem Inc E2-627
Procedure: Purified GST or GST-Ubc13 fusion proteins were incubated with the cell extract prepared from OCI-Ly10 cells with or without the presence of NSC697923 as indicated. The amounts of Uev1A protein associated with GST or GST-Ubc13 were analyzed by western blotting. The first lane was loaded with 8% of the input cell lysate. […] The assay was carried out as described in FIG. 4A, except that the loading buffer for SDS-PAGE gel contains no reducing agent, unless otherwise specified, and the reaction was analyzed by western blotting with a Ubc13-specific antibody. […] The assay was carried out as in FIG. 5B, except that UbcHSc, instead of Ubc13 and Uev1A, was used in the ubiquitination reaction and that a UbcHSc antibody was used for western blot analysis.
For detecting the E2-ubiquitin (Ubc13˜Ub or UbcH5c˜Ub) thioester conjugates, the reactions were carried out as described above without GST-TRAF6. The reactions were terminated with the SDS-sample buffer without a reducing agent unless specified. The products were analyzed by western blotting with an anti-Ubc13 or anti-UbcHSc antibody as indicated.

[2] = system: PMA-induced NF-κB activation in SUDHL-6 cells; test: IκBα phosphorylation after PMA, western blot; type: cell-based; conditions: SUDHL-6, PMA 100 ng/ml
Procedure: SUDHL-6, RAW264.7, and MEF cells were treated with NSC697923 or DMSO (control) for 1 hour before being stimulated with the PMA (100 ng/ml), RANKL (15 ng/ml), and LPS (1.5 μg/ml) for the indicated times. The levels of IκBα phosphorylation in the indicated samples were assessed by western blotting.

Ubc13 in OCI-Ly10 cells = target: T2, Ubc13 in OCI-Ly10 cells (Homo sapiens, UniProt P61088); test: Ubc13~Ub conjugate formation in DLBCL cells, western blot; type: cell-based; conditions: 3 hours
T2 construct: endogenous in cells; host or cells: OCI-Ly10
Procedure: OCI-Ly10 cells were treated with the indicated concentrations of NSC697923 for 3 hours. The levels of Ubc13˜Ub conjugate were analyzed by western blotting using a Ubc13-specific antibody as described in FIG. 4B. […] OCI-Ly10 cells were treated with DMSO (0.1%) or the indicated concentrations of NSC697923 for 3.5 hours. The levels of the indicated proteins were analyzed by western blotting with the respective antibodies.

SUDHL-6 = test: Proliferation and survival of GCB DLBCL cells (trypan blue, annexin V); type: cell-based; conditions: SUDHL-6, 24 hours
Procedure: (§3) In FIG. 8A, the GCB DLBCL cells were plated at the indicated cell concentrations and treated with various concentrations of NSC697923 for 24 hours. The effects of NSC697923 on the growth of these cells were analyzed as described in FIG. 7A. In FIG. 8B, the cells were plated at a concentration of 4×10^5 cells/ml and treated with NSC697923 as in FIG. 8A, and the apoptotic cells were analyzed as described in FIG. 7C.
as §1

OCI-Ly7 = test: as above; type: cell-based; conditions: OCI-Ly7, 24 hours
Procedure: as §3, §1

T2 sequence (P61088 whole entry): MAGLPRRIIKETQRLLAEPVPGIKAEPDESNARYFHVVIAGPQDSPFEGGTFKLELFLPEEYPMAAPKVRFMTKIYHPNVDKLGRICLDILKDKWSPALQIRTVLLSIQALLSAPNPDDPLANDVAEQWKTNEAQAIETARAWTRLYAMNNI
T1 sequence (P61077 whole entry): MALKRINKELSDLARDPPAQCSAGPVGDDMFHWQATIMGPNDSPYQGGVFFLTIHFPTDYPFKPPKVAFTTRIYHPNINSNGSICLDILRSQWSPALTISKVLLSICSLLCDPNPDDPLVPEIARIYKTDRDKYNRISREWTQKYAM

formation of UbcH5c~Ub conjugate (UbcH5c): is not inhibited
SMILES: Cc1ccc(S(=O)(=O)c2ccc([N+](=O)[O-])o2)cc1 [NSC697923, 2-nitro-5-tosylfuran]
PARP (OCI-Ly10 cells; 5 hours): cleavage of PARP | caspase 3 (OCI-Ly10 cells; 5 hours): activation of caspase 3 | annexin V-positive cells (OCI-Ly10 cells; 24 hours): increase in annexin V-positive cells | toxic effects on proliferation and survival compared to DLBCL cells (osteosarcoma U2OS cells): much less toxic effects | toxic effects on proliferation and survival compared to DLBCL cells [1]: much less toxic effects | PMA-induced NF-κB activation (IκBα phosphorylation) [2]: inhibiting | formation of the Ubc13~Ub conjugate in cells (Ubc13 in OCI-Ly10 cells): inhibited formation of the Ubc13˜Ub conjugate | proliferation and survival (SUDHL-6): inhibited proliferation and survival | proliferation and survival (OCI-Ly7): inhibited proliferation and survival
